Like-named read-outs stand apart in the source and are kept apart here.
Assays:
KLK7 [1] = biological target: KLK7
KLK7 [2] = biological target: KLK7; remark: listed apart in the source
Source text: Head of the field: Ki [nM]
In contrast to the first generation, they contain only two cysteines cyclized with one linker. The K values are shown as mean of three measurements ±SD.
First copying reader's note: The two cysteines are bridged by a drawn acetone (C=O) linker shown above the sequence columns; the Ki cells hold the value ± its error against KLK7.

Substance | Ki (KLK7 [1]) | Ki (KLK7 [2])
P C L Y L S C P [compound 089] | 50 ± 5 nM | –
P C L Y L S R C S [compound 095] | – | 90 ± 7 nM
P C L Y M A R C S [compound 111] | – | 10 ± 1.3 nM
